Patent publication US7563592B2, “Alizarin-based chromogenic substrates, their uses and composition containing same” (Biomerieux, S.A., priority 1999, dated 2009)

Legend:
Shigella boydii = assay: β-galactosidase detection on semi-solid medium, clinical and environmental strains (Example 2); format: cell-based; conditions: 50 mg/l + iron citrate 500 mg/l; 18 hours; 1 strain tested
Enterobacter aerogenes = assay: as above; format: cell-based; conditions: 50 mg/l + iron citrate 500 mg/l; 18 hours; 9 strains tested
Serratia odorifera = assay: as above; format: cell-based; conditions: 50 mg/l + iron citrate 500 mg/l; 18 hours; 1 strain tested
Aeromonas caviae = assay: as above; format: cell-based; conditions: 50 mg/l + iron citrate 500 mg/l; 18 hours; 7 strains tested
Proteus mirabilis = assay: as above; format: cell-based; conditions: 50 mg/l + iron citrate 500 mg/l; 18 hours; 16 strains tested
Salmonella spp. = assay: as above; format: cell-based; conditions: 50 mg/l + iron citrate 500 mg/l; 18 hours; 64 strains tested
Listeria innocua 077 = assay: Effect of metal salts on the color of the marker part, substrate 50 mg/l in Columbia medium (Example 3); format: cell-based
Description: (§1) To the Columbia-base medium (46.37 g/l) supplemented with Alizarin-2-β-D-glucoside (50 mg/l), were added either Manganese chloride, Ammoniacal iron citrate, Tin chloride, or Aluminum sulfate, all at a concentration of 50 mg/l. A control medium with no metal salts was tested in parallel. After autoclaving, these various media were all used to prepare Petri dishes (20 ml per plate). […] It should be pointed out that intensity readings are in arbitrary units. The only purpose of giving these values is to make it possible to compare one strain with another in this respect. The same is true for the examples which follow. Similarly, the strains tested were taken from the Applicant's collection and the number given represents an internal reference specific to this collection. The same internal numbering system is also used in some of the examples given later on.

Listeria grayi 078 = assay: as above; format: cell-based
Description: as §1

Listeria seeligeri 011 = assay: as above; format: cell-based
Description: as §1

Listeria ivanovii 032 = assay: as above; format: cell-based
Description: as §1

Listeria innocua 036 = assay: as above; format: cell-based
Description: as §1

Listeria ivanovii 020 = assay: as above; format: cell-based
Description: as §1

Listeria seeligeri 080 = assay: β-glucosidase detection in API strip wells (Example 6); conditions: 0.12 g/l + iron citrate 0.05 g/l
[1] = Manganese chloride 50 mg/l, 24 H
[2] = Manganese chloride 50 mg/l, 48 H

For `O=C1c2ccccc2C(=O)c2c1ccc(O[C@@H]1O[C@H](CO)[C@H](O)[C@H](O)[C@H]1O)c2O` [Alizarin-2-β-D-galactoside], the “percentage of positive strains” value (Shigella boydii) was 0%, the “percentage of positive strains” value (Enterobacter aerogenes) was 100% and the “percentage of positive strains” value (Serratia odorifera) was 100%. For the same compound, the “percentage of positive strains” value (Aeromonas caviae) was 86%, the “percentage of positive strains” value (Proteus mirabilis) was 0% and the “percentage of positive strains” value (Salmonella spp.) was 0%.

In the case of `O=C1c2ccccc2C(=O)c2c1ccc(O[C@@H]1O[C@H](CO)[C@@H](O)[C@H](O)[C@H]1O)c2O` [Alizarin-2-β-D-glucoside], the Color (Listeria innocua 077; Aluminum sulfate 50 mg/l, 24 H) is reported as “red”, the Intensity (Listeria innocua 077; Aluminum sulfate 50 mg/l, 24 H) is reported as 4 arbitrary units and the Color (Listeria innocua 077; Aluminum sulfate 50 mg/l, 48 H) is reported as “red”. The Intensity (Listeria innocua 077; Aluminum sulfate 50 mg/l, 48 H) was 4 arbitrary units, the Color (Listeria innocua 077; Control, no metal salt, 24 H) was “purple” and the Intensity (Listeria innocua 077; Control, no metal salt, 24 H) was 2.3 arbitrary units. The Color (Listeria innocua 077; Control, no metal salt, 48 H) was “purple”, the Intensity (Listeria innocua 077; Control, no metal salt, 48 H) was 2.3 arbitrary units and the Color (Listeria innocua 077; Iron citrate 50 mg/l, 24 H) was “purple”. The Intensity (Listeria innocua 077; Iron citrate 50 mg/l, 24 H) was 4 arbitrary units, the Color (Listeria innocua 077; Iron citrate 50 mg/l, 48 H) was “purple” and the Intensity (Listeria innocua 077; Iron citrate 50 mg/l, 48 H) was 4 arbitrary units. For the same compound, the Color (Listeria innocua 077; [1]) was “purple”, the Intensity (Listeria innocua 077; [1]) was 2.3 arbitrary units and the Color (Listeria innocua 077; [2]) was “purple”. For the same compound, the Intensity (Listeria innocua 077; [2]) was 2.3 arbitrary units, the Color (Listeria innocua 077; Tin chloride 50 mg/l, 24 H) was “orange” and the Intensity (Listeria innocua 077; Tin chloride 50 mg/l, 24 H) was 3 arbitrary units. For the same compound, the Color (Listeria innocua 077; Tin chloride 50 mg/l, 48 H) was “orange”, the Intensity (Listeria innocua 077; Tin chloride 50 mg/l, 48 H) was 4 arbitrary units and the Color (Listeria grayi 078; Aluminum sulfate 50 mg/l, 24 H) was “red”. For the same compound, the Intensity (Listeria grayi 078; Aluminum sulfate 50 mg/l, 24 H) was 4 arbitrary units, the Color (Listeria grayi 078; Aluminum sulfate 50 mg/l, 48 H) was “red” and the Intensity (Listeria grayi 078; Aluminum sulfate 50 mg/l, 48 H) was 4 arbitrary units. The Color (Listeria grayi 078; Control, no metal salt, 24 H) was “purple”, the Intensity (Listeria grayi 078; Control, no metal salt, 24 H) was 2 arbitrary units and the Color (Listeria grayi 078; Control, no metal salt, 48 H) was “purple”. For the same compound, the Intensity (Listeria grayi 078; Control, no metal salt, 48 H) was 2.3 arbitrary units, the Color (Listeria grayi 078; Iron citrate 50 mg/l, 24 H) was “purple” and the Intensity (Listeria grayi 078; Iron citrate 50 mg/l, 24 H) was 4 arbitrary units. The Color (Listeria grayi 078; Iron citrate 50 mg/l, 48 H) was “purple”, the Intensity (Listeria grayi 078; Iron citrate 50 mg/l, 48 H) was 4 arbitrary units and the Color (Listeria grayi 078; [1]) was “purple”. For the same compound, the Intensity (Listeria grayi 078; [1]) was 2 arbitrary units, the Color (Listeria grayi 078; [2]) was “purple” and the Intensity (Listeria grayi 078; [2]) was 2 arbitrary units. The Color (Listeria grayi 078; Tin chloride 50 mg/l, 24 H) was “orange”, the Intensity (Listeria grayi 078; Tin chloride 50 mg/l, 24 H) was 3 arbitrary units and the Color (Listeria grayi 078; Tin chloride 50 mg/l, 48 H) was “orange”. For the same compound, the Intensity (Listeria grayi 078; Tin chloride 50 mg/l, 48 H) was 4 arbitrary units, the Color (Listeria seeligeri 011; Aluminum sulfate 50 mg/l, 24 H) was “red” and the Intensity (Listeria seeligeri 011; Aluminum sulfate 50 mg/l, 24 H) was 4 arbitrary units. The Color (Listeria seeligeri 011; Aluminum sulfate 50 mg/l, 48 H) was “red”, the Intensity (Listeria seeligeri 011; Aluminum sulfate 50 mg/l, 48 H) was 4 arbitrary units and the Color (Listeria seeligeri 011; Control, no metal salt, 24 H) was “purple”. For the same compound, the Intensity (Listeria seeligeri 011; Control, no metal salt, 24 H) was 2.3 arbitrary units, the Color (Listeria seeligeri 011; Control, no metal salt, 48 H) was “purple” and the Intensity (Listeria seeligeri 011; Control, no metal salt, 48 H) was 2.3 arbitrary units. The Color (Listeria seeligeri 011; Iron citrate 50 mg/l, 24 H) was “purple”, the Intensity (Listeria seeligeri 011; Iron citrate 50 mg/l, 24 H) was 4 arbitrary units and the Color (Listeria seeligeri 011; Iron citrate 50 mg/l, 48 H) was “purple”. The Intensity (Listeria seeligeri 011; Iron citrate 50 mg/l, 48 H) was 4 arbitrary units, the Color (Listeria seeligeri 011; [1]) was “purple” and the Intensity (Listeria seeligeri 011; [1]) was 2.7 arbitrary units. The Color (Listeria seeligeri 011; [2]) was “purple”, the Intensity (Listeria seeligeri 011; [2]) was 2.7 arbitrary units and the Color (Listeria seeligeri 011; Tin chloride 50 mg/l, 24 H) was “orange”. The Intensity (Listeria seeligeri 011; Tin chloride 50 mg/l, 24 H) was 3 arbitrary units, the Color (Listeria seeligeri 011; Tin chloride 50 mg/l, 48 H) was “orange” and the Intensity (Listeria seeligeri 011; Tin chloride 50 mg/l, 48 H) was 4 arbitrary units. For the same compound, the Color (Listeria ivanovii 032; Aluminum sulfate 50 mg/l, 24 H) was “red”, the Intensity (Listeria ivanovii 032; Aluminum sulfate 50 mg/l, 24 H) was 4 arbitrary units and the Color (Listeria ivanovii 032; Aluminum sulfate 50 mg/l, 48 H) was “red”. For the same compound, the Intensity (Listeria ivanovii 032; Aluminum sulfate 50 mg/l, 48 H) was 4 arbitrary units, the Color (Listeria ivanovii 032; Control, no metal salt, 24 H) was “purple” and the Intensity (Listeria ivanovii 032; Control, no metal salt, 24 H) was 2.3 arbitrary units. For the same compound, the Color (Listeria ivanovii 032; Control, no metal salt, 48 H) was “purple”, the Intensity (Listeria ivanovii 032; Control, no metal salt, 48 H) was 2.3 arbitrary units and the Color (Listeria ivanovii 032; Iron citrate 50 mg/l, 24 H) was “purple”. The Intensity (Listeria ivanovii 032; Iron citrate 50 mg/l, 24 H) was 4 arbitrary units, the Color (Listeria ivanovii 032; Iron citrate 50 mg/l, 48 H) was “purple” and the Intensity (Listeria ivanovii 032; Iron citrate 50 mg/l, 48 H) was 4 arbitrary units. The Color (Listeria ivanovii 032; [1]) was “purple”, the Intensity (Listeria ivanovii 032; [1]) was 2.3 arbitrary units and the Color (Listeria ivanovii 032; [2]) was “purple”. For the same compound, the Intensity (Listeria ivanovii 032; [2]) was 2.3 arbitrary units, the Color (Listeria ivanovii 032; Tin chloride 50 mg/l, 24 H) was “orange” and the Intensity (Listeria ivanovii 032; Tin chloride 50 mg/l, 24 H) was 3 arbitrary units. The Color (Listeria ivanovii 032; Tin chloride 50 mg/l, 48 H) was “orange”, the Intensity (Listeria ivanovii 032; Tin chloride 50 mg/l, 48 H) was 4 arbitrary units and the Color (Listeria innocua 036; Aluminum sulfate 50 mg/l, 24 H) was “red”. The Intensity (Listeria innocua 036; Aluminum sulfate 50 mg/l, 24 H) was 4 arbitrary units, the Color (Listeria innocua 036; Aluminum sulfate 50 mg/l, 48 H) was “red” and the Intensity (Listeria innocua 036; Aluminum sulfate 50 mg/l, 48 H) was 4 arbitrary units. The Color (Listeria innocua 036; Control, no metal salt, 24 H) was “purple”, the Intensity (Listeria innocua 036; Control, no metal salt, 24 H) was 2.3 arbitrary units and the Color (Listeria innocua 036; Control, no metal salt, 48 H) was “purple”. The Intensity (Listeria innocua 036; Control, no metal salt, 48 H) was 2.7 arbitrary units, the Color (Listeria innocua 036; Iron citrate 50 mg/l, 24 H) was “purple” and the Intensity (Listeria innocua 036; Iron citrate 50 mg/l, 24 H) was 4 arbitrary units. The Color (Listeria innocua 036; Iron citrate 50 mg/l, 48 H) was “purple”, the Intensity (Listeria innocua 036; Iron citrate 50 mg/l, 48 H) was 4 arbitrary units and the Color (Listeria innocua 036; [1]) was “purple”. The Intensity (Listeria innocua 036; [1]) was 2.3 arbitrary units, the Color (Listeria innocua 036; [2]) was “purple” and the Intensity (Listeria innocua 036; [2]) was 2.7 arbitrary units. The Color (Listeria innocua 036; Tin chloride 50 mg/l, 24 H) was “orange”, the Intensity (Listeria innocua 036; Tin chloride 50 mg/l, 24 H) was 3 arbitrary units and the Color (Listeria innocua 036; Tin chloride 50 mg/l, 48 H) was “orange”. For the same compound, the Intensity (Listeria innocua 036; Tin chloride 50 mg/l, 48 H) was 4 arbitrary units, the Color (Listeria ivanovii 020; Aluminum sulfate 50 mg/l, 24 H) was “red” and the Intensity (Listeria ivanovii 020; Aluminum sulfate 50 mg/l, 24 H) was 4 arbitrary units. For the same compound, the Color (Listeria ivanovii 020; Aluminum sulfate 50 mg/l, 48 H) was “red”, the Intensity (Listeria ivanovii 020; Aluminum sulfate 50 mg/l, 48 H) was 4 arbitrary units and the Color (Listeria ivanovii 020; Control, no metal salt, 24 H) was “purple”. For the same compound, the Intensity (Listeria ivanovii 020; Control, no metal salt, 24 H) was 2.3 arbitrary units, the Color (Listeria ivanovii 020; Control, no metal salt, 48 H) was “purple” and the Intensity (Listeria ivanovii 020; Control, no metal salt, 48 H) was 2.3 arbitrary units. For the same compound, the Color (Listeria ivanovii 020; Iron citrate 50 mg/l, 24 H) was “purple”, the Intensity (Listeria ivanovii 020; Iron citrate 50 mg/l, 24 H) was 4 arbitrary units and the Color (Listeria ivanovii 020; Iron citrate 50 mg/l, 48 H) was “purple”. The Intensity (Listeria ivanovii 020; Iron citrate 50 mg/l, 48 H) was 4 arbitrary units, the Color (Listeria ivanovii 020; [1]) was “purple” and the Intensity (Listeria ivanovii 020; [1]) was 2.7 arbitrary units. The Color (Listeria ivanovii 020; [2]) was “purple”, the Intensity (Listeria ivanovii 020; [2]) was 2.7 arbitrary units and the Color (Listeria ivanovii 020; Tin chloride 50 mg/l, 24 H) was “orange”. The Intensity (Listeria ivanovii 020; Tin chloride 50 mg/l, 24 H) was 3 arbitrary units, the Color (Listeria ivanovii 020; Tin chloride 50 mg/l, 48 H) was “orange” and the Intensity (Listeria ivanovii 020; Tin chloride 50 mg/l, 48 H) was 4 arbitrary units. For the same compound, the Color observed (Listeria seeligeri 080; 4 H) was “Purple” and the Color observed (Listeria seeligeri 080; 24 H) was “Purple”.
